Laboratory results: PMC6332353, “New Sulphated Flavonoids from Wissadula periplocifolia (L.) C. Presl (Malvaceae)” (Molecules, 2015)
In brackets after ≈: the same amount, converted by molar mass.

Tests used:
[1] = tested on: prostate carcinoma cell line (PC-3M); test: alamarBlue cytotoxicity assay, PC-3M cells; type: cell-based; settings: Homo sapiens, tumour cell line, 24 h treatment, 0.4–100 µg/mL, mean ± SD
Source text: (§1) All media and supplements were obtained from Invitrogen (Paisley, UK). The following human cell lines were used in the current study: the human glioma cancer cell line (UVW) previously described, the prostate carcinoma cell line (PC-3M), the normal prostate epithelial cell line (PNT2A), and the normal foreskin fibroblast cell line (Hs27). All cell lines were obtained from in house stocks (UVW) or from stocks purchased from the ATCC (Rockville, MD, USA) and are routinely genetically verified and confirmed as free from mycoplasma contamination. UVW, PNT2A, and Hs27 cells were maintained in Eagle’s Minimum Essential Medium (MEM), RPMI 1640 Medium, and Dulbecco’s Modified Eagle’s Medium (DMEM), respectively. All media were supplemented with 10% v/v fetal bovine serum, penicillin (100 units/mL), streptomycin (100 μg/mL), Fungizone (2.5 μg/mL of amphotericin B), and L-glutamine (2 mM). The PC-3M cells were cultured in the same MEM medium as described for UVW cells with the addition of 1% v/v MEM Non-essential Amino Acids Solution, 1% v/v MEM Vitamin Solution, and 1mM sodium pyruvate. The cells were cultured at 37 °C in a humidified atmosphere of 5% CO2.
(§2) Each sample tested was dissolved in DMSO at 50 mg/mL and kept at −20 °C until extract preparation was proceeded. For the biological assays, the samples were diluted in culture medium to get the selected concentrations. The toxicity of the flavonoids on UVW, PC-3M, PNT2A, and Hs27 cells was assessed by the fluorometric measurement of metabolic activity using the AlamarBlue assay (Invitrogen). Briefly, cells were seeded on 96-well culture plates (3.3 × 10^3cells/well). […] Fluorescence was measured on a micro plate fluorescence reader (Spectramax Gemini XS, Molecular Devices, Sunnyvale, CA, USA) using an excitation wavelength of 560 nm and an emission wavelength of 590 nm. Cell viability was calculated and plotted as the percentage of metabolically active cells relative to the control. […]

[2] = tested on: human glioma cancer cell line (UVW); test: alamarBlue cytotoxicity assay, UVW cells; type: cell-based; settings: tumour cell line, 24 h treatment, 0.4–100 µg/mL, mean ± SD
Source text: as §1, §2

[3] = tested on: normal prostate epithelial cell line (PNT2A); test: alamarBlue cytotoxicity assay, PNT2A cells; type: cell-based; settings: Homo sapiens, 24 h treatment, 0.4–100 µg/mL, mean ± SD
Source text: as §1, §2

[4] = tested on: normal foreskin fibroblast cell line (Hs27); test: alamarBlue cytotoxicity assay, Hs27 cells; type: cell-based; settings: Homo sapiens, 24 h treatment, 0.4–100 µg/mL, mean ± SD
Source text: All media and supplements were obtained from Invitrogen (Paisley, UK). The following human cell lines were used in the current study: the human glioma cancer cell line (UVW) previously described, the prostate carcinoma cell line (PC-3M), the normal prostate epithelial cell line (PNT2A), and the normal foreskin fibroblast cell line (Hs27). All cell lines were obtained from in house stocks (UVW) or from stocks purchased from the ATCC (Rockville, MD, USA) and are routinely genetically verified and confirmed as free from mycoplasma contamination. UVW, PNT2A, and Hs27 cells were maintained in Eagle’s Minimum Essential Medium (MEM), RPMI 1640 Medium, and Dulbecco’s Modified Eagle’s Medium (DMEM), respectively. All media were supplemented with 10% v/v fetal bovine serum, penicillin (100 units/mL), streptomycin (100 μg/mL), Fungizone (2.5 μg/mL of amphotericin B), and L-glutamine (2 mM). […] The toxicity of the flavonoids on UVW, PC-3M, PNT2A, and Hs27 cells was assessed by the fluorometric measurement of metabolic activity using the AlamarBlue assay (Invitrogen). […] Fluorescence was measured on a micro plate fluorescence reader (Spectramax Gemini XS, Molecular Devices, Sunnyvale, CA, USA) using an excitation wavelength of 560 nm and an emission wavelength of 590 nm. Cell viability was calculated and plotted as the percentage of metabolically active cells relative to the control. […]

lung cancer A549 = tested on: lung cancer A549; set-up: method as in PMID 25000464; settings: cited from earlier work
[5] = tested on: carcinoma of Ehrlich tumours; set-up: method as in earlier work; settings: tumours implanted in mice; cited from earlier work
sarcoma 180 = tested on: sarcoma 180; set-up: method as in earlier work; settings: tumours implanted in mice; cited from earlier work

Row | Compound | IC50 [1] | IC50 [2] | IC50 [3] | IC50 [4] | toxic effects on A549 cells (in words) (lung cancer A549) | tumour growth inhibition, carcinoma of Ehrlich [5] | tumour growth inhibition, sarcoma 180 (sarcoma 180)
1 | COc1ccc(-c2cc(=O)c3c(O)cc(OC)c(O)c3o2)cc1 [7,4′-di-O-methylisoscutellarein] | > 100 µg/mL | 98.5 ± 1.13 µg/mL (≈ 314 µM) | 88.7 ± 1.13 µg/mL (≈ 282 µM) |  |  |  | 
2 | COc1ccc(-c2cc(=O)c3c(O)cc(O)cc3o2)cc1 [acacetin] | 21.1 ± 1.16 µg/mL (≈ 74.3 µM) | 27.4 ± 1.09 µg/mL (≈ 96.3 µM) | 51.3 ± 1.09 µg/mL (≈ 181 µM) | > 100 µg/mL |  |  | 
3 | O=C(/C=C/c1ccc(O)cc1)OC[C@H]1O[C@@H](Oc2c(-c3ccc(O)cc3)oc3cc(O)cc(O)c3c2=O)[C@H](O)[C@@H](O)[C@@H]1O [tiliroside, kaempferol-3-O-b-D-(6′′-E-p-coumaroyl) glucopyranoside] | 60.5 ± 1.12 µg/mL (≈ 102 µM) | > 100 µg/mL | > 100 µg/mL |  | toxic effects | significantly inhibited the growth | significantly inhibited the growth
